Measurements as given in patent publication US20040127446A1 (priority 1992, published 2004).
[invAb] = 3' inverted deoxyabasic cap; [2NH2-N] = 2'-deoxy-2'-amino ribonucleotide (N: the base); [amino-N] = 2'-deoxy-2'-amino nucleotide (N: the base); [I] = hypoxanthine (inosine); m = 2'-O-methyl; r = 2'-OH (RNA)

Tests used:
plus strand HCV RNA = assay type: biochemical, Hepatitis C virus; conditions: plus strand (+) HCV site, 50 mM Tris-Cl, pH 8.0, 40 mM Mg2+ at 37°, trace substrate, enzymatic nucleic acid concentration of 500 nM or greater
minus strand HCV RNA = assay type: biochemical, Hepatitis C virus; conditions: minus strand (−) HCV site, 50 mM Tris-Cl, pH 8.0, 40 mM Mg2+ at 37°, trace substrate, enzymatic nucleic acid concentration of 500 nM or greater

Substance	% Substrate Cleaved in 3 hours (plus strand HCV RNA)	% Substrate Cleaved in 3 hours (minus strand HCV RNA)
22719 (UGGAAGAUGAUGGCAUGCACUAUGCGCGACUGAGA; sugars from the 5' end mmmmmmmmrrrmmmmmrmmmmmmmmmrmmmmmmmm, [invAb] at 3' end, backbone not given here) [compound 22719]	69.88%	
22724 (GGAUGGUUGAUGGCAUGCACUAUGCGCGAGACAGG; sugars from the 5' end mmmmmmmmrrrmmmmmrmmmmmmmmmrmmmmmmmm, [invAb] at 3' end, backbone not given here) [compound 22724]		65.16%
22725 (GGAAAAGUGAUGGCAUGCACUAUGCGCGAACAGGA; sugars from the 5' end mmmmmmmmrrrmmmmmrmmmmmmmmmrmmmmmmmm, [invAb] at 3' end, backbone not given here) [compound 22725]		94.66%
22726 (AGAAGAAUGAUGGCAUGCACUAUGCGCGACGAGGA; sugars from the 5' end mmmmmmmmrrrmmmmmrmmmmmmmmmrmmmmmmmm, [invAb] at 3' end, backbone not given here) [compound 22726]		82.14%
22727 (GGACGAGUGAUGGCAUGCACUAUGCGCGACUUUGU; sugars from the 5' end mmmmmmmmrrrmmmmmrmmmmmmmmmrmmmmmmmm, [invAb] at 3' end, backbone not given here) [compound 22727]		67.20%
22728 (GGUAGGUUGAUGGCAUGCACUAUGCGCGAAGUGGC; sugars from the 5' end mmmmmmmmrrrmmmmmrmmmmmmmmmrmmmmmmmm, [invAb] at 3' end, backbone not given here) [compound 22728]		81.06%
22752 (AAGAGGAGCCGAAAGGCGAGUGAGGUCUGCGGCGA; 2'-O-methyl at 1, 2, 3, 4, 5, 6, 7, 8, 9, 10, 11, 12, 13, 14, 15, 16, [amino-N] at 17, 27, [invAb] at 3' end, other sugars and backbone not given here) [compound 22752]		27.83%
22753 (UGGAAGAGCCGAAAGGCGAGUGAGGUCUACUGAGA; 2'-O-methyl at 1, 2, 3, 4, 5, 6, 7, 8, 9, 10, 11, 12, 13, 14, 15, 16, [2NH2-N] at 17, 27, [invAb] at 3' end, other sugars and backbone not given here) [compound 22753]		89.39%
22754 (AGGAGUAGCCGAAAGGCGAGUGAGGUCUGUGGAGG; 2'-O-methyl at 1, 2, 3, 4, 5, 6, 7, 8, 9, 10, 11, 12, 13, 14, 15, 16, [2NH2-N] at 17, 27, [invAb] at 3' end, other sugars and backbone not given here) [compound 22754]		50.40%
22755 (CGAAGCAGCCGAAAGGCGAGUGAGGUCUAUGUGGA; 2'-O-methyl at 1, 2, 3, 4, 5, 6, 7, 8, 9, 10, 11, 12, 13, 14, 15, 16, [2NH2-N] at 17, 27, [invAb] at 3' end, other sugars and backbone not given here) [compound 22755]		81.10%
22756 (UGGAAGAGCCGAAAGGCGAGUGAGGUCUGGCGUGA; 2'-O-methyl at 1, 2, 3, 4, 5, 6, 7, 8, 9, 10, 11, 12, 13, 14, 15, 16, [2NH2-N] at 17, 27, [invAb] at 3' end, other sugars and backbone not given here) [compound 22756]		73.47%
22780 (GACACUGCUGAUGAGGCCGUUAGGCCGAANACACCA; ribozyme; 2'-O-methyl at 1, 2, 3, 4, 5, 6, 7, 15, 16, 17, 18, 19, 20, 21, 22, 23, 24, 25, 26, 31, 32, 33, 34, 35, 36, [I] at 30, [invAb] at 3' end, other sugars and backbone not given here) [compound 22780]		87.33%
22781 (GAGAUGACUGAUGAGGCCGUUAGGCCGAANGCGAAG; 2'-O-methyl at 1, 2, 3, 4, 5, 6, 7, 15, 16, 17, 18, 19, 20, 21, 22, 23, 24, 25, 26, 31, 32, 33, 34, 35, 36, [I] at 30, [invAb] at 3' end, other sugars and backbone not given here) [compound 22781]		70.67%
22782 (GGAUGAGCUGAUGAGGCCGUUAGGCCGAANAGAGGU; 2'-O-methyl at 1, 2, 3, 4, 5, 6, 7, 15, 16, 17, 18, 19, 20, 21, 22, 23, 24, 25, 26, 31, 32, 33, 34, 35, 36, [I] at 30, [invAb] at 3' end, other sugars and backbone not given here) [compound 22782]		78.83%
22783 (UGUGCAGCUGAUGAGGCCGUUAGGCCGAANGAUGAA; 2'-O-methyl at 1, 2, 3, 4, 5, 6, 7, 15, 16, 17, 18, 19, 20, 21, 22, 23, 24, 25, 26, 31, 32, 33, 34, 35, 36, [I] at 30, [invAb] at 3' end, other sugars and backbone not given here) [compound 22783]		86.93%
22784 (UGGAUGACUGAUGAGGCCGUUAGGCCGAANCUGUUG; 2'-O-methyl at 1, 2, 3, 4, 5, 6, 7, 15, 16, 17, 18, 19, 20, 21, 22, 23, 24, 25, 26, 31, 32, 33, 34, 35, 36, [I] at 30, [invAb] at 3' end, other sugars and backbone not given here) [compound 22784]		90.41%
22948 (GCGAGCCCUGAUGAGGCCGUUAGGCCGAAACGAGUC; 2'-O-methyl at 1, 2, 3, 4, 5, 6, 7, 15, 16, 17, 18, 19, 20, 21, 22, 23, 24, 25, 26, 31, 32, 33, 34, 35, 36, [invAb] at 3' end, other sugars and backbone not given here) [compound 22948]		88.34%
22949 (GCUGGAACUGAUGAGGCCGUUAGGCCGAAACACUGA; 2'-O-methyl at 1, 2, 3, 4, 5, 6, 7, 15, 16, 17, 18, 19, 20, 21, 22, 23, 24, 25, 26, 31, 32, 33, 34, 35, 36, [invAb] at 3' end, other sugars and backbone not given here) [compound 22949]		89.16%
22950 (AGGAUGACUGAUGAGGCCGUUAGGCCGAAAGAGAGG; 2'-O-methyl at 1, 2, 3, 4, 5, 6, 7, 15, 16, 17, 18, 19, 20, 21, 22, 23, 24, 25, 26, 31, 32, 33, 34, 35, 36, [invAb] at 3' end, other sugars and backbone not given here) [compound 22950]		83.43%
22951 (UGAGGAGCUGAUGAGGCCGUUAGGCCGAAACGUGGA; 2'-O-methyl at 1, 2, 3, 4, 5, 6, 7, 15, 16, 17, 18, 19, 20, 21, 22, 23, 24, 25, 26, 31, 32, 33, 34, 35, 36, [invAb] at 3' end, other sugars and backbone not given here) [compound 22951]		83.25%
22952 (GACUGGACUGAUGAGGCCGUUAGGCCGAAAUGCACG; 2'-O-methyl at 1, 2, 3, 4, 5, 6, 7, 15, 16, 17, 18, 19, 20, 21, 22, 23, 24, 25, 26, 31, 32, 33, 34, 35, 36, [invAb] at 3' end, other sugars and backbone not given here) [compound 22952]		86.96%
22976 (AAGAGGAGGCTAGCTACAACGAGCGGCGAN; 3' inverted abasic cap (B); Description of Artificial Sequence: Nucleic Acid; misc_feature (30)..(30): n stands for inverted deoxyabasic derivative; misc_feature (1)..(7): 2'-O-Methyl; misc_feature (23)..(29): 2'-O-Methyl) [compound 22976]		66.06%
22977 (AAGGAGAGGCTAGCTACAACGAGAAGGCGN; 3' inverted abasic cap (B); Description of Artificial Sequence: Nucleic Acid; misc_feature (30)..(30): n stands for inverted deoxyabasic derivative; misc_feature (1)..(7): 2'-O-Methyl; misc_feature (23)..(29): 2'-O-Methyl) [compound 22977]		71.28%
22978 (AGGAGGAGGCTAGCTACAACGAGAGAGAGN; 3' inverted abasic cap (B); Description of Artificial Sequence: Nucleic Acid; misc_feature (1)..(7): 2'-O-Methyl; misc_feature (23)..(29): 2'-O-Methyl; misc_feature (30)..(30): n stands for inverted deoxyabasic derivative) [compound 22978]		61.60%
22979 (AGGAGUAGGCTAGCTACAACGAGUGGAGGN; 3' inverted abasic cap (B); Description of Artificial Sequence: Nucleic Acid; misc_feature (30)..(30): n stands for inverted deoxyabasic derivative; misc_feature (1)..(7): 2'-O-Methyl; misc_feature (23)..(29): 2'-O-Methyl) [compound 22979]		85.53%
22980 (GUUGUGAGGCTAGCTACAACGAUUGGAGGN; 3' inverted abasic cap (B); Description of Artificial Sequence: Nucleic Acid; misc_feature (30)..(30): n stands for inverted deoxyabasic derivative; misc_feature (1)..(7): 2'-O-Methyl; misc_feature (23)..(29): 2'-O-Methyl) [compound 22980]		34.60%
